Converted amounts (≈) assume the structure as drawn. Like-named read-outs stand apart in the source and are kept apart here. Bounds are passed on as bounds.

For one assay, the system named is C. auris 8984. In words: Candida panel MIC, serial dilution in 96-well plates. The following applies: Candidozyma auris, 8984; Table 4, extended panel; 24 hours, ≥50% inhibition; read-out: MIC C. auris 8984. It is filed as cell-based, Candida auris. The protocol:
(§1) The minimum inhibitory concentration of test compounds were determined in a panel of Candida species (see Table 4 below), using the a serial dilution method in 96-well plates using the following protocol.
(§2) Starter cultures of fungal strains to be tested were grown in 3 mL of RPMI 2% glucose media incubated at 37° C. with shaking at 200 rpm overnight. The culture media used was 900 mL H2O; 10.4 g RPMI 1640 (with L-glutamine and a pH indicator but without bicarbonate); 34.5 g MOPS and 18 g glucose. The pH of the media was adjusted to 7.0 with 1 M sodium hydroxide.
(§3) Solutions of the compound to be tested were prepared by dissolving the compound in DMSO and subsequently into media to the desired concentrations. […] The last two rows of each plate were control rows containing the culture media alone and the media plus fungi.
(§4) The fungi starter cultures were diluted 1:10 in water in cuvettes. This was then further diluted to an optical density (OD600) of 0.01 in media. 100 μL of the fungi was added to each well giving a starting concentration of fungus of 0.5-5×10^5/mL. One species of fungus was used on each plate. The plates were then held at 37° C. for 24 hours.
(§5) A plate reader was used to measure growth in each well at OD530 nm and the MIC was determined for each test compound. The MIC is defined as the lowest concentration giving rise to inhibition of ≥50% of that of the drug-free control well containing the fungus and media.
(§6) The Candida auris strains shown in Table 7 were either taken from the National Collection of Pathogenic Fungi (NCPF) or collected as part of ongoing surveillance studies. The strains were characterised as follows.

In a further assay the test system is C. auris 8977. The description is as above. The class given is cell-based, Candida auris. The note with it: Candidozyma auris, 8977; Table 4, extended panel; 24 hours, ≥50% inhibition; read-out: MIC C. auris 8977. As to the method:
as §1, §2, §3, §4, §5, §6

Another assay relates to C. auris 8971. The description is as above. The class given is cell-based, Candida auris. The following applies: Candidozyma auris, 8971; Table 4, extended panel; 24 hours, ≥50% inhibition; read-out: MIC C. auris 8971. The protocol: as §1, §2, §3, §4, §5, §6
A further assay concerns Candida auris TDG2506. In words: microbe, parasite or virus in culture. The note with it: Candidozyma auris, TDG2506; Table 4, extended panel; 24 hours, ≥50% inhibition; read-out: MIC Candida auris TDG2506. It is filed as cell-based. As to the method:
as §1, §2, §3, §4, §5, §6

In another assay the test system is Candida auris TDG2211. Kind of assay: microbe, parasite or virus in culture. The class given is cell-based. The following applies: Candidozyma auris, TDG2211; Table 4, extended panel; 24 hours, ≥50% inhibition; read-out: MIC Candida auris TDG2211. The protocol: as §1, §2, §3, §4, §5, §6
The test system of another assay is C. krusei NCPF3876. In words: microbe, parasite or virus in culture. It is filed as cell-based, Candida krusei. The following applies: Pichia kudriavzevii, NCPF3876; Table 4, common panel; 24 hours, ≥50% inhibition; read-out: MIC C. krusei NCPF3876. The protocol:
as §1, §2, §3, §4, §5

For another assay, the system named is Candida auris TDG2512. In words: Candida panel MIC, serial dilution in 96-well plates. The class given is cell-based. The following applies: Candidozyma auris, read-out: MIC Candida auris TDG2512. As to the method: as §1, §2
(§7) Solutions of the compound to be tested were prepared by dissolving the compound in DMSO and subsequently into media to the desired concentrations. 200 μL of compound solution was then added to the wells of the 96-well plate using a serial dilution method row-by row of the plate to give a compound concentration gradient across the plate of from 128 μg/mL to 0.25 μg/mL. The last two rows of each plate were control rows containing the culture media alone and the media plus fungi.
as §4, §5

The subject of another assay is C. tropicalis NCPF8760. The description is as above. The class given is cell-based. The note with it: NCPF8760, Table 4, common panel, 24 hours, ≥50% inhibition, read-out: MIC C. tropicalis NCPF8760. The protocol:
as §1, §2, §7, §4, §5

A further assay deals with Candida auris TDG1102. The description is as above. It is filed as cell-based. The following applies: Candidozyma auris, TDG1102; Table 4, extended panel; 24 hours, ≥50% inhibition; read-out: MIC Candida auris TDG1102. The protocol: as §1, §2, §7, §4, §5
Another assay relates to C. auris TDG1912. Described as above. It is filed as cell-based. The note with it: Candidozyma auris, read-out: MIC C. auris TDG1912. The protocol: as §1, §2, §7, §4, §5
In a further assay the test system is C. glabrata NCPF8018. The description is as above. The note with it: Nakaseomyces glabratus, NCPF8018; Table 4, common panel; 24 hours, ≥50% inhibition; read-out: MIC C. glabrata NCPF8018. The class given is cell-based, Candida glabrata. As to the method: as §1, §2, §3, §4, §5
For another assay, the system named is C. albicans NCPF3281. The assay is described as above. The class given is cell-based, Candida albicans. The following applies: Candida albicans, read-out: MIC C. albicans NCPF3281. The protocol:
as §1, §2, §7, §4, §5

In another assay the test system is C. parapsilosis NCPF3209. In words: microbe, parasite or virus in culture. The class given is cell-based, Candida parapsilosis. The note with it: Lodderomyces parapsilosis, NCPF3209; Table 4, common panel; 24 hours, ≥50% inhibition; read-out: MIC C. parapsilosis NCPF3209. As to the method: as §1, §2, §3, §4, §5
Setting [1] is: TDG2512, Table 4, extended panel, 24 hours, ≥50% inhibition.
Setting [2] is: TDG1912, Table 4, 24 hours, ≥50% inhibition.
Setting [3] is: NCPF3281, Table 4, common panel, 24 hours, ≥50% inhibition.

Take `OC(CN1CCC(Nc2ccc(OCCN3CCCC3)cc2)CC1)(Cn1cncn1)c1ccc(F)cc1F` (centres unmarked) [Example 82]: the MIC with C. auris 8984 was 4 µg/mL (≈ 7.6 µM); in the assay with C. auris 8977 it was 4 to 16 µg/mL (≈ 7.6 to 30.4 µM); in the assay on C. auris 8971 it was 2 to 8 µg/mL (≈ 3.8 to 15.2 µM); in the assay on Candida auris TDG2506, 4 µg/mL (≈ 7.6 µM); in the assay on Candida auris TDG2211 it was 0.5 to 2 µg/mL (≈ 0.949 to 3.8 µM); in the assay with C. krusei NCPF3876 it was 8 µg/mL (≈ 15.2 µM). For the same compound, the MIC is 1 µg/mL (≈ 1.9 µM) with Candida auris TDG2512 (setting [1]); over 32 µg/mL in the assay on C. tropicalis NCPF8760; 16 µg/mL (≈ 30.4 µM) in the assay on Candida auris TDG1102; 4 to 16 µg/mL (≈ 7.6 to 30.4 µM) in the assay on C. auris TDG1912 (setting [2]); 32 µg/mL (≈ 60.8 µM) with C. glabrata NCPF8018; 0.25 µg/mL (≈ 0.475 µM) with C. albicans NCPF3281 (setting [3]). The MIC in the assay on C. parapsilosis NCPF3209 was found to be 0.25 µg/mL (≈ 0.475 µM).
Regarding `CC1CCN(COc2ccc(NC3CCN(CC(O)(Cn4cncn4)c4ccc(F)cc4F)CC3)cc2)CC1` (centres unmarked) [Example 83], the MIC in the assay on C. auris 8984 was 2 µg/mL (≈ 3.7 µM); with C. auris 8977, 1 µg/mL (≈ 1.85 µM); with C. auris 8971, 1 µg/mL (≈ 1.85 µM); in the assay with Candida auris TDG2506, 0.5 to 2 µg/mL (≈ 0.925 to 3.7 µM); with Candida auris TDG2211, 0.25 µg/mL (≈ 0.462 µM); in the assay with C. krusei NCPF3876, 4 µg/mL (≈ 7.4 µM). Besides, the MIC with Candida auris TDG2512 (setting [1]) was 0.25 µg/mL (≈ 0.462 µM); in the assay on C. tropicalis NCPF8760 it was 8 µg/mL (≈ 14.8 µM); in the assay with Candida auris TDG1102, 4 µg/mL (≈ 7.4 µM); in the assay on C. auris TDG1912 (setting [2]) it was 1 to 4 µg/mL (≈ 1.85 to 7.4 µM); with C. glabrata NCPF8018 it was 8 µg/mL (≈ 14.8 µM); in the assay on C. albicans NCPF3281 (setting [3]) it was 0.06 µg/mL (≈ 0.111 µM). In addition, in the assay on C. parapsilosis NCPF3209, the MIC came out at 0.06 µg/mL (≈ 0.111 µM).
In the case of `Cc1ccc(Oc2ccc(NC3CCN(CC(O)(Cn4cncn4)c4ccc(F)cc4F)CC3)cc2)cc1` (centres unmarked) [Example 85], the MIC was 0.0625 to 0.5 µg/mL (≈ 0.12 to 0.962 µM) in the assay with C. auris 8984; 0.015 to 0.03 µg/mL (≈ 0.0289 to 0.0577 µM) in the assay on C. auris 8977; 0.00195 to 0.125 µg/mL (≈ 0.00375 to 0.241 µM) with C. auris 8971; 0.0625 to 0.125 µg/mL (≈ 0.12 to 0.241 µM) in the assay on Candida auris TDG2506; 0.015 to 0.125 µg/mL (≈ 0.0289 to 0.241 µM) with Candida auris TDG2211; 0.0156 to 0.25 µg/mL (≈ 0.03 to 0.481 µM) in the assay on C. krusei NCPF3876. In addition, the MIC in the assay on Candida auris TDG2512 (setting [1]) is 0.00391 to 0.0313 µg/mL (≈ 0.00753 to 0.0602 µM); in the assay on C. tropicalis NCPF8760, 0.25 µg/mL (≈ 0.481 µM); in the assay on Candida auris TDG1102, 0.0625 to 0.25 µg/mL (≈ 0.12 to 0.481 µM); with C. auris TDG1912 (setting [2]) it was 0.0625 µg/mL (≈ 0.12 µM); in the assay with C. glabrata NCPF8018, 1 µg/mL (≈ 1.92 µM); in the assay on C. albicans NCPF3281 (setting [3]) it was 0.0078 µg/mL (≈ 0.015 µM). Besides, in the assay on C. parapsilosis NCPF3209, the MIC fell in the range of 0.00391 to 0.0313 µg/mL (≈ 0.00753 to 0.0602 µM).
As for `OC(CN1CCC2(CCC(Nc3ccc(OCCN4CCOCC4)cc3)CC2)C1)(Cn1cncn1)c1ccc(F)cc1F` (centres unmarked) [Example 87], the MIC in the assay with C. auris 8984 amounted to 0.25 µg/mL (≈ 0.419 µM); with C. auris 8977, 0.25 µg/mL (≈ 0.419 µM); with C. auris 8971, 0.25 µg/mL (≈ 0.419 µM); with Candida auris TDG2506, 0.125 µg/mL (≈ 0.209 µM); with Candida auris TDG2211 it was 0.125 µg/mL (≈ 0.209 µM); in the assay with C. krusei NCPF3876, 1 µg/mL (≈ 1.68 µM). Moreover, the MIC with Candida auris TDG2512 (TDG2512, 24 h) amounted to 0.0625 µg/mL (≈ 0.105 µM); in the assay on C. tropicalis NCPF8760, 2 µg/mL (≈ 3.35 µM); in the assay with Candida auris TDG1102, 0.5 µg/mL (≈ 0.838 µM); in the assay on C. auris TDG1912 (TDG1912, 24 h), 0.5 µg/mL (≈ 0.838 µM); with C. glabrata NCPF8018, 4 µg/mL (≈ 6.7 µM); in the assay with C. albicans NCPF3281 (NCPF3281, 24 h) it was 0.313 µg/mL (≈ 0.525 µM). Besides, the MIC with C. parapsilosis NCPF3209 was found to be 0.313 µg/mL (≈ 0.525 µM).
Regarding `OC(CN1CCC2(CCN(c3ccc(OCCN4CCOCC4)cc3)CC2)C1)(Cn1cncn1)c1ccc(F)cc1F` (centres unmarked) [Example 88], the MIC in the assay with C. auris 8984 came to 0.25 µg/mL (≈ 0.429 µM); in the assay with C. auris 8977, 0.125 µg/mL (≈ 0.215 µM); with C. auris 8971 it was 0.25 µg/mL (≈ 0.429 µM); with Candida auris TDG2506, 0.25 µg/mL (≈ 0.429 µM); in the assay on Candida auris TDG2211, 0.125 µg/mL (≈ 0.215 µM); in the assay on C. krusei NCPF3876, 1 µg/mL (≈ 1.72 µM). Also, the MIC in the assay with Candida auris TDG2512 (setting [1]) came out at 0.0625 µg/mL (≈ 0.107 µM); in the assay on C. tropicalis NCPF8760, 1 µg/mL (≈ 1.72 µM); with Candida auris TDG1102, 0.5 µg/mL (≈ 0.858 µM); with C. auris TDG1912 (setting [2]), 0.5 µg/mL (≈ 0.858 µM); with C. glabrata NCPF8018, 4 µg/mL (≈ 6.86 µM); with C. albicans NCPF3281 (setting [3]), 0.0313 µg/mL (≈ 0.0537 µM). For the same compound, the MIC in the assay on C. parapsilosis NCPF3209 turned out to be 0.0313 µg/mL (≈ 0.0537 µM).

Source of the values: patent publication US20240246920A1, “TRIAZOLE DERIVATIVES WITH ANTIFUNGAL ACTIVITY” (King's College London, priority 2020, published 2024).
